Results as given in patent US4958010A, “Epipodophyllotoxin glucoside lactam derivatives” (Bristol-Myers Company, priority 1989, dated 1990).
Values after ≈ are worked out from the molar mass of the structure shown. Values joined by “and” are separate entries in the source; they are usually repeats but may differ in a detail not shown here. Equal values may be shown once. Where a name gives a salt, the structure may show the parent alone.

Assays:
[1] = Cancer Chemoth. Rep., 1966, 50:565-571; cited from earlier work
P388 leukemia = assay: antitumor activity against intravenously implanted P388 leukemia in BDF1 female mice; type: in vivo, murine (BDF1 female mice); conditions: 10^6 P388 cells i.v., drug i.v. on days 5 and 8, 200 mg/kg/dose, 64 days
Method: Compound of Example 15 was evaluated against intravenously implanted P388 leukemia (10^6 cells) in BDF1 female mice. The test compound was administered intravenously at various dose levels to groups of six mice on days 5 and 8; the positive control, etoposide, was given intraperitoneally. The experiment lasted 64 days.

Moser human colon = assay: in vitro cytotoxicity assay, Moser human colon; type: cell-based; conditions: concentration required to inhibit cell growth by 50%, four-fold serial dilution, replicate determinations on separate lines; for IC50: Homo sapiens
Method: (§1) Representative compounds of the present invention were also evaluated in in vitro cytotoxicity assay against various murine and human tumor cell lines. The in vitro cytotoxicity assay involved growing various mammalian tumor cells, including human tumor cells, on microtitre plates employing established tissue culture methods. The concentration of each compound required to inhibit cell growth by 50% (IC50) was then determined by four-fold serial dilution technique. Tumor cells of the following types were employed for each compound tested: B16-F10 murine melanoma; Moser human colon; SW900 human lung; and two human colon tumor cell lines namely HCT-116, and HCT/VP35, the latter being resistant to etoposide (VP). […] The in vitro data may also be evaluated in terms of potency ratio which is defined as the ratio of IC50 against an etoposide-resistant cell-line to IC50 against an etoposide-sensitive cell-line.

HCT-116 = assay: in vitro cytotoxicity assay, HCT-116 human colon tumor; type: cell-based; conditions: four-fold serial dilution, replicate determinations on separate lines; for IC50: Homo sapiens, HCT-116, concentration required to inhibit cell growth by 50%; for IC50 HCT-116: concentration required to inhibit cell growth by 50%
Method: as §1

SW900 human lung = assay: in vitro cytotoxicity assay, SW900 human lung; type: cell-based; conditions: four-fold serial dilution, replicate determinations on separate lines; for IC50: Homo sapiens, SW900, concentration required to inhibit cell growth by 50%; for IC50 SW900: concentration required to inhibit cell growth by 50%
Method: as §1

B16-F10 murine melanoma = assay: in vitro cytotoxicity assay, B16-F10 murine melanoma; type: cell-based; conditions: four-fold serial dilution, replicate determinations on separate lines; for IC50: Mus musculus, B16-F10, concentration required to inhibit cell growth by 50%; for IC50 B16-F10: concentration required to inhibit cell growth by 50%
Method: as §1

HCT/VP35 = assay: in vitro cytotoxicity assay, HCT/VP35 human colon tumor resistant to etoposide; type: cell-based; conditions: for IC50: Homo sapiens, HCT/VP35, etoposide-resistant line; for IC50 / IC50 HCT/VP35: concentration required to inhibit cell growth by 50%, four-fold serial dilution, replicate determinations on separate lines; for IC50 HCT/VP35: etoposide-resistant line; for potency ratio IC50 HCT/VP35 : IC50 HCT-116: ratio of IC50 against etoposide-resistant cell line to IC50 against etoposide-sensitive cell line, same experiment
Method: as §1

SMILES | antitumor activity in clinical trials [1] | max. % T/C (P388 leukemia) [% T/C] | IC50 Moser (Moser human colon) | IC50 (HCT-116) [mg/L] | IC50 HCT-116 (HCT-116) | IC50 (SW900 human lung) [mg/L] | IC50 (B16-F10 murine melanoma) [mg/L] | IC50 B16-F10 (B16-F10 murine melanoma) | IC50 (HCT/VP35) [mg/L] | IC50 (Moser human colon) [mg/L] | IC50 SW900 (SW900 human lung) | IC50 HCT/VP35 (HCT/VP35) | potency ratio IC50 HCT/VP35 : IC50 HCT-116 (HCT/VP35)
CCNNC(=O)C1C(c2cc(OC)c(OC)c(OC)c2)c2cc3c(cc2C(O)C1CO)OCO3 (centres unmarked) [ethyl hydrazide of podophyllotoxin (V), ethyl hydrazide of podophyllotoxin] | minimal antitumor activity |  |  |  |  |  |  |  |  |  |  |  | 
COc1cc([C@@H]2c3cc4c(cc3[C@@H](O[C@@H]3O[C@@H]5CO[C@@H](C)O[C@H]5[C@H](O)[C@H]3O)[C@H]3CNC(=O)[C@H]23)OCO4)cc(OC)c1OP(=O)(O)O [Example 15, 6H-Pyrrolo[3',4':6,7]naphtho[2,3-d]-1,3-dioxole-6-one, 5,5a,7,8,8a,9-hexahydro-9-[(4,6-O-ethylidene-β-Dglucopyranosyl)oxy]-5-[(3,5-dimethoxy-4-phosphonoxy)phenyl]-1, disodium salt, [5R-[5α,5aβ,8aα,9β(R*)]-] |  | 235 |  |  |  |  |  |  |  |  |  |  | 
COc1cc([C@@H]2c3cc4c(cc3[C@@H](O[C@@H]3O[C@@H]5CO[C@@H](C)O[C@H]5[C@H](O)[C@H]3O)[C@H]3CN(NCc5ccccc5)C(=O)[C@H]23)OCO4)cc(OC)c1O [Example 4, 6H-Pyrrolo[3',4':6,7]naphtho[2,3-d]-1,3-dioxole-6-one, 5,5a,7,8,8a,9-hexahydro-9-[(4,6-O-ethylidene-β-D-glucopyranosyl)oxy]-5-[(4-hydroxy-3,5-dimethoxy)phenyl]-7-[(phenylmethyl)amino]-, [5R-[5α,5aβ,8aα,9β(R*)]-] |  |  | 122.94 mg/L and > 250 mg/L | 105 (≈ 151 µM) | 113.88 mg/L (≈ 164 µM) | > 250 | 73.4 (≈ 106 µM) | 95.19 mg/L (≈ 137 µM) | > 250 |  |  |  | 
COc1cc([C@@H]2c3cc4c(cc3[C@@H](O[C@@H]3O[C@@H]5CO[C@@H](C)O[C@H]5[C@H](O)[C@H]3O)[C@@H](CO)[C@@H]2C(N)=O)OCO4)cc(OC)c1O (relative stereo) [Example 2, Naphtho[2,3-d]-1,3-dioxole-6-carboxamide, 5,6,7,8-tetrahydro-8-[(4,6-0-ethylidene-β-D-glucopyranosyl)oxy]-5-[(4-hydroxy-3,5-dimethoxy)phenyl]-7-(hydroxymethyl)-, [5Rα,6α,7β,8β(R*)]-] |  |  | 115.67 mg/L (≈ 191 µM) | 78.6 (≈ 130 µM) | 96.28 mg/L (≈ 159 µM) | 106 (≈ 175 µM) | 70.6 (≈ 117 µM) | 93.03 mg/L (≈ 154 µM) | > 250 | 107 (≈ 177 µM) | 120.54 mg/L (≈ 199 µM) |  | 
CCCCCCCC(=O)Oc1c(OC)cc([C@@H]2c3cc4c(cc3[C@@H](O[C@@H]3O[C@@H]5CO[C@@H](C)O[C@H]5[C@H](O)[C@H]3O)[C@H]3CN(N=Cc5ccccc5)C(=O)[C@H]23)OCO4)cc1OC [Example 10, 6H-Pyrrolo[3',4':6,7]naphtho[2,3-d]-1,3-dioxole-6-one, 5,5a,7,8,8a,9-hexahydro-9-[(4,6-O-ethylidene-β-D-glucopyranosyl)oxy]-5-[(3,5-dimethoxy-4-octanoyloxy)phenyl]-7-[(phenylmethylene)amino]-, [5R-[5α,5aβ,8aα, 9β(R*)]-] |  |  | 16.38 mg/L (≈ 20.1 µM) | 17.3 (≈ 21.1 µM) | 16.05 mg/L (≈ 19.6 µM) | 21.2 (≈ 26 µM) | 23.6 (≈ 29 µM) | 16.76 mg/L (≈ 20.5 µM) | 25.6 (≈ 31.3 µM) | 25.6 (≈ 31.3 µM) | 19.82 mg/L (≈ 24.3 µM) | 13.50 mg/L (≈ 16.5 µM) | 1
COc1cc([C@@H]2c3cc4c(cc3[C@@H](O[C@@H]3O[C@@H]5CO[C@@H](C)O[C@H]5[C@H](O)[C@H]3O)[C@H]3CN(N=Cc5ccc([N+](=O)[O-])cc5)C(=O)[C@H]23)OCO4)cc(OC)c1O [Example 6, 6H-Pyrrolo[3',4':6,7]naphtho[2,3-d]-1,3-dioxole-6-one, 5,5a,7,8,8a,9-hexahydro-9-[(4,6-O-ethylidene-δ-D-glucopyranosyl)oxy]-5-[(4-hydroxy-3,5-dimethoxy)phenyl]-7-[[(4-nitrophenyl)methylene]amino], [5R-[5α,5aβ,8aα,9β(R*)]-] |  |  |  | 83.6 (≈ 114 µM) | 60.66 mg/L (≈ 82.5 µM) | > 250 |  | 7.73 mg/L and 16.11 mg/L | > 250 | > 250 |  |  | 
CCCCCCCC=NN1C[C@H]2[C@H](C1=O)[C@H](c1cc(OC)c(O)c(OC)c1)c1cc3c(cc1[C@H]2O[C@@H]1O[C@@H]2CO[C@@H](C)O[C@H]2[C@H](O)[C@H]1O)OCO3 [Example 9, 6H-Pyrrolo[3',4':6,7]naphtho[2,3-d]-1,3-dioxole-6-one, 5,5a,7,8,8a,9-hexahydro-9-[(4,6-O-ethylidene-β-D-glucopyranosyl)oxy]-5-[(4-hydroxy-3,5-dimethoxy)phenyl]-7-[(octylidene)amino]-, [5R-[5α,5aβ,8aα,9β(R*)]-] |  |  | 15.09 mg/L and 15.98 mg/L |  | 3.39 mg/L and 4.68 mg/L and 16.63 mg/L |  | 6.64 (≈ 9.32 µM) | 6.70 mg/L and 10.21 mg/L |  | 11.5 (≈ 16.1 µM) | 21.21 mg/L and 52.18 mg/L and 95.53 mg/L | 6.85 mg/L and 23.65 mg/L | 
COc1cc([C@@H]2c3cc4c(cc3[C@@H](O[C@@H]3O[C@@H]5CO[C@@H](C)O[C@H]5[C@H](O)[C@H]3O)[C@H]3CNC(=O)[C@H]23)OCO4)cc(OC)c1O [Example 5, 6H-Pyrrolo[3',4':6,7]naphtho[2,3-d]-1,3-dioxole-6-one,5,5a,7,8,8a,9-hexahydro-9-[(4,6-O-ethylidene-β-D-glucopyranosyl)oxy]-5-[(4-hydroxy-3,5-dimethoxy)phenyl]-, [5R-[5α,5aα,8aα, 9β(R*)]-] |  |  | 102.51 mg/L (≈ 174 µM) | 56.1 (≈ 95.5 µM) | 66.52 mg/L (≈ 113 µM) | 107 (≈ 183 µM) |  | 27.92 mg/L and 72.27 mg/L | 103 (≈ 175 µM) | 81.1 (≈ 138 µM) | 123.53 mg/L (≈ 210 µM) | 111.78 mg/L (≈ 190 µM) | 
CCCCCCCC(=O)Oc1c(OC)cc([C@@H]2c3cc4c(cc3[C@@H](O[C@@H]3O[C@@H]5CO[C@@H](C)O[C@H]5[C@H](O)[C@H]3O)[C@H]3CNC(=O)[C@H]23)OCO4)cc1OC [Example 11, 6H-Pyrrolo[3',4':6,7]naphtho[2,3-d]-1,3-dioxole-6-one, 5,5a,7,8,8a,9-hexahydro-9[(4,6-O-ethylidene-β-D-glucopyranosyl)oxy]-5-[(3,5-dimethoxy-4-octanoyloxy)phenyl], [5R-[5α,5aβ,8aα,9β(R*)]-] |  |  | 25.92 mg/L (≈ 36.3 µM) | 17.3 (≈ 24.2 µM) | 18.33 mg/L (≈ 25.7 µM) | 12.3 (≈ 17.3 µM) | 21 (≈ 29.4 µM) | 20.69 mg/L (≈ 29 µM) | 18.7 (≈ 26.2 µM) | 20.2 (≈ 28.3 µM) | 12.48 mg/L (≈ 17.5 µM) | 25.22 mg/L (≈ 35.3 µM) | 1
COc1cc([C@@H]2c3cc4c(cc3[C@@H](O[C@@H]3O[C@@H]5CO[C@@H](C)O[C@H]5[C@H](O)[C@H]3O)[C@H]3CN(N=Cc5ccccc5)C(=O)[C@H]23)OCO4)cc(OC)c1O [Example 3, 6H-Pyrrolo[3',4':6,7]naphtho[2,3-d]-1,3-dioxole-6-one, 5,5a,7,8,8a,9-hexahydro-9-[(4,6-O-ethylidene-β-D-glucopyranosyl)oxy]-5-[(4-hydroxy-3,5-dimethoxy)phenyl]-7-[(phenylmethylene)amino][5R-[5α,5aβ,8aα,9β(R*)]-] |  |  | 73.81 mg/L (≈ 107 µM) | 23.8 (≈ 34.4 µM) | 20.04 mg/L (≈ 29 µM) | 36.5 (≈ 52.8 µM) | 10.3 (≈ 15 µM) | 17.80 mg/L (≈ 25.8 µM) | 38.3 (≈ 55.5 µM) | 56.4 (≈ 81.7 µM) | 48.73 mg/L (≈ 70.6 µM) | 42.37 mg/L (≈ 61.3 µM) | 
COc1cc([C@@H]2c3cc4c(cc3[C@@H](O[C@@H]3O[C@@H]5CO[C@@H](C)O[C@H]5[C@H](O)[C@H]3O)[C@H]3CN(N=C(C)C)C(=O)[C@H]23)OCO4)cc(OC)c1O (relative stereo) [Example 8, 6H-Pyrrolo[3',4':6,7]naphtho[2,3-d]-1,3-dioxole-6-one, 5,5,a,7,8,8a,9-hexahydro-9-[(4,6-O-ethylidene-β-D-glucopyranosyl)oxy]-5-[(4-hydroxy-3,5-dimethoxy)phenyl]-7-[(2-propylidene)amino]-, [5 R-[5α,5aβ,8aα,9β(R*)]-] |  |  | 91.26 mg/L and 123.63 mg/L and > 250 mg/L | 69.4 (≈ 108 µM) | 78.90 mg/L and 108.89 mg/L | > 250 | 43.2 (≈ 67.3 µM) | 61.29 mg/L and 74.21 mg/L | 103 (≈ 160 µM) |  |  | 96.26 mg/L (≈ 150 µM) | 
